Data reported in patent publication US8158792B2, “Spiropiperidines for use as tryptase inhibitors” (Janssen Pharmaceutica N.V., priority 2007, dated 2012).

Biological target: human lung tryptase
Assay: β-Tryptase In-Vitro Enzyme Assay
Format: biochemical
Settings: human lung tryptase 1 nM, substrate H-D-HHT-Ala-Arg-pNa 500 μM, pH 7.4, room temperature
Method: The β-tryptase assay was conducted with human lung tryptase (Cortex Biochem #CP3033) in an aqueous buffer (10 mM Tris, 10 mM Hepes, 150 mM NaCl, 0.1% PEG 8000, pH 7.4) using the chromogenic substrate H-D-HHT-Ala-Arg-pNa. […] Percent inhibition was calculated by comparing the initial reaction velocity of samples without inhibitor to those with inhibitor. The initial reaction velocities were analyzed using Microsoft Excel.

Compound `CC1=C(C(=O)N2CCC3(CC2)COc2ccc(CN)cc23)Cc2ccccc21` [Cpd 192, 1-(1-methyl-3H-inden-2-yl)carbonyl-5′-aminomethyl-spiro[piperidine-4,3′-(2H)-benzo[b]furan]] has an IC50 of 150 nM.
For `NCc1ccc2c(c1)C1(CCN(C(=O)c3cc4sccc4s3)CC1)CO2` [Cpd 204, 1-thieno[3,2-b]thien-2-ylcarbonyl-5′-aminomethyl-spiro[piperidine-4,3′-(2H)-benzo[b]furan]], the IC50 was 89 nM.
`NCc1ccc2c(c1)C1(CCN(C(=O)Cc3ccc(F)cc3)CC1)CO2` [Cpd 90, 1-(4-fluoro-benzyl)carbonyl-5′-aminomethyl-spiro[piperidine-4,3′-(2H)-benzo[b]furan]] showed an IC50 of 980 nM.
For `NCc1ccc2c(c1)C1(CCN(C(=O)Cc3cccc(Br)c3)CC1)CO2` [Cpd 95, 1-(3-bromo-benzyl)carbonyl-5′-aminomethyl-spiro[piperidine-4,3′-(2H)-benzo[b]furan]], the IC50 was 3200 nM.
`NCc1ccc2c(c1)C1(CCN(C(=O)c3ccc(F)c(C(F)(F)F)c3)CC1)CO2` [Cpd 74, 1-(3-trifluoromethyl-4-fluoro-phenyl)carbonyl-5′-aminomethyl-spiro[piperidine-4,3′-(2H)-benzo[b]furan]] was tested, and the IC50 was 160 nM.
In the case of `NCc1ccc2c(c1)C1(CCN(C(=O)c3ccc(Oc4ccccc4)cc3)CC1)CO2` [Cpd 62, 1-(4-phenoxy-phenyl)carbonyl-5′-aminomethyl-spiro[piperidine-4,3′-(2H)-benzo[b]furan]], the IC50 is reported as 800 nM.
`Cc1cccc(CC(=O)N2CCC3(CC2)COc2ccc(CN)cc23)c1` [Cpd 89, 1-(3-methyl-benzyl)carbonyl-5′-aminomethyl-spiro[piperidine-4,3′-(2H)-benzo[b]furan]] showed an IC50 of 1400 nM.
Compound `NCc1ccc2c(c1)C1(CCN(C(=O)c3cccc(SC(F)(F)F)c3)CC1)CO2` [Cpd 63, 1-(3-trifluoromethylthio-phenyl)carbonyl-5′-aminomethyl-spiro[piperidine-4,3′-(2H)-benzo[b]furan]] has an IC50 of 41 nM.
`Cc1cc(C(=O)N2CCC3(CC2)COc2ccc(CN)cc23)ccc1Br` [Cpd 30, 1-(3-methyl-4-bromo-phenyl)carbonyl-5′-aminomethyl-spiro[piperidine-4,3′-(2H)-benzo[b]furan]] showed an IC50 of 140 nM.
With `CSc1sc(C(=O)N2CCC3(CC2)COc2ccc(CN)cc23)cc1C#N` [Cpd 258, 1-(4-cyano-5-methylthio-thien-2-yl)carbonyl-5′-aminomethyl-spiro[piperidine-4,3′-(2H)-benzo[b]furan]] the IC50 was 28 nM.
In the case of `NCc1ccc2c(c1)C1(CCN(C(=O)c3ccc(Cl)c(Cl)c3)C(=O)C1)CO2` (stereo not shown) [Cpd 262, 1-(3,4-dichlorophenyl)carbonyl-2-oxo-5′-aminomethyl-spiro[piperidine-4,3′-(2H)-benzo[b]furan]], the IC50 is reported as 4500 nM.
`NCc1ccc2c(c1)C1(CCN(C(=O)/C=C/c3cccnc3)CC1)CO2` [Cpd 253, (E)-1-(pyridin-3-ylethenyl)carbonyl-5′-aminomethyl-spiro[piperidine-4,3′-(2H)-benzo[b]furan]] gave an IC50 of 2400 nM.
`Cn1c(C(=O)N2CCC3(CC2)COc2ccc(CN)cc23)cc2ccccc21` [Cpd 193, 1-(1-methyl-indol-2-yl)carbonyl-5′-aminomethyl-spiro[piperidine-4,3′-(2H)-benzo[b]furan]] showed an IC50 of 360 nM.
With `NCc1ccc2c(c1)C1(CCN(C(=O)c3cc4ccccc4n3S(=O)(=O)c3ccccc3)CC1)CO2` [Cpd 283, 1-(1-phenylsulfonyl-1H-indol-2-yl)carbonyl-5′-aminomethyl-spiro[piperidine-4,3′-(2H)-benzo[b]furan]] the IC50 was 910 nM.
`Cc1cc(OCc2ccc(C(=O)N3CCC4(CC3)COc3ccc(CN)cc34)o2)ccc1Cl` [Cpd 139, 1-[5-(3-methyl-4-chloro-phenoxymethyl)-furan-2-yl]carbonyl-5′-aminomethyl-spiro[piperidine-4,3′-(2H)-benzo[b]furan]] gave an IC50 of 87 nM.
For `NCc1ccc2c(c1)C1(CCN(C(=O)C=C3c4ccccc4-c4ccccc43)CC1)CO2` [Cpd 189, 1-(1-oxo-2-fluoren-9-ylidene-ethyl)-5′-aminomethyl-spiro[piperidine-4,3′-(2H)-benzo[b]furan]], the IC50 was 380 nM.
